Results published in patent US10550091B2, “1,4,5-substituted 1,2,3-triazole analogues as antagonists of the pregnane X receptor” (ST. JUDE CHILDREN'S RESEARCH HOSPITAL, priority 2016, dated 2020).
pEC50, pIC50: −log10 of the molar value. Like-named read-outs stand apart in the source and are kept apart here.

Legend:
[1] = target: human peroxisome proliferator-activated receptor gamma (PPARγ) (Homo sapiens, UniProt P37231); experiment: human peroxisome proliferator-activated receptor gamma (PPARγ) transactivation assay; format: cell-based
Protocol: Cells were maintained by following manufacturer's instruction. Briefly, PPARγ cells were maintained in matrigel-coated tissue culture flasks in DMEM supplemented with 10% dialyzed FBS, 0.1 mM non-essential amino acids, 1 mM sodium pyruvate, 25 mM HEPES, 100 μg/ml of hygromycin B, 500 μg/ml of geneticin, 100 units/ml penicillin and 100 μg/ml streptomycin. […] Assay medium containing DMSO without cells serves as background control.

[2] = target: T1, hPXR (Homo sapiens (Human), UniProt O75469); experiment: hPXR transactivation assays (agonistic and antagonistic), HepG2 cells with CYP3A4-luciferase reporter; details: 24 h, NA = not active; for pIC50: read-out: IC50 (antag), antagonistic assay, combined with 5 μM rifampicin; for pEC50: read-out: EC50 (agon), agonistic assay, compound alone
Protocol: (§1) The hPXR transactivation assays (PXR agonistic and antagonistic assays) were performed in the HepG2 cells stably expressing FLAG-hPXR and CYP3A4-luciferase reporter. […] The luminescence signal was detected using an Envision plate reader (PerkinElmer Life Sciences).

[3] = test system: HepG2 cells; experiment: HepG2 cytotoxicity assay (CellTiter Glo); format: cell-based; details: Homo sapiens, HepG2, 72 h, read-out: IC50 (cyto)
Description: The luminescence signal was detected using an Envision plate reader (PerkinElmer Life Sciences).

[4] = target: human retinoid X receptor beta (hRXRβ) (Homo sapiens, UniProt P28702); experiment: human retinoid X receptor beta (hRXRβ) transactivation assay; format: cell-based; details: for pIC50: Anta = compound exhibited antagonism, read-out: RXRβ (Anta)
Protocol: Cells were maintained by following manufacturer's instruction. Briefly, RXRβ cells were maintained in DMEM supplemented with 10% dialyzed FBS, 0.1 mM non-essential amino acids, 25 mM HEPES, 100 μg/ml of hygromycin B, 100 μg/ml of zeocin, 100 units/ml penicillin and 100 μg/ml streptomycin.

[5] = target: human glucocorticoid receptor (hGR) (Homo sapiens, UniProt P04150); experiment: human glucocorticoid receptor (hGR) transactivation assay; format: cell-based; details: Anta = compound exhibited antagonism; read-out: GR (Anta)
[6] = target: human retinoid X receptor alpha (hRXRα) (Homo sapiens, UniProt P19793); experiment: human retinoid X receptor alpha (hRXRα) transactivation assay; format: cell-based; details: Anta = compound exhibited antagonism; read-out: RXRα (Anta)
[7] = target: human Farnesoid X receptor (hFXR) (Homo sapiens, UniProt Q96RI1); experiment: human Farnesoid X receptor (hFXR) transactivation assay; format: cell-based; details: Anta = compound exhibited antagonism; read-out: FXR (Anta)
Protocol: Cells were maintained by following manufacturer's instruction. Briefly, FXR cells were maintained in DMEM supplemented with 10% dialyzed FBS, 0.1 mM non-essential amino acids, 25 mM HEPES, 100 μg/ml of hygromycin B, 100 μg/ml of zeocin, 100 units/ml penicillin and 100 μg/ml streptomycin.

[8] = target: human vitamin D receptor (hVDR) (Homo sapiens, UniProt P11473); experiment: human vitamin D receptor (hVDR) transactivation assay; format: cell-based
Protocol: Cells were maintained by following manufacturer's instruction. Briefly, VDR cells were maintained in matrigel-coated tissue culture flasks in DMEM supplemented with 10% dialyzed FBS, 0.1 mM non-essential amino acids, 1 mM sodium pyruvate, 25 mM HEPES, 80 μg/ml of hygromycin B, 80 μg/ml of zeocin, 100 units/ml penicillin and 100 μg/ml streptomycin. […] Assay medium containing DMSO without cells serves as background control.

[9] = target: human Liver X receptor alpha (hLXRα) (Homo sapiens, UniProt Q13133); experiment: human Liver X receptor alpha (hLXRα) transactivation assay; format: cell-based; details: Anta = compound exhibited antagonism; read-out: LXRα (Anta)
[10] = target: human Liver X receptor beta (hLXRβ) (Homo sapiens, UniProt P55055); experiment: human Liver X receptor beta (hLXRβ) transactivation assay; format: cell-based; details: Anta = compound exhibited antagonism; read-out: LXRβ (Anta)
[11] = target: T1, hPXR
Protocol: as §1

[12] = Anta = compound exhibited antagonism, read-out: PPARγ (Anta)

Sequence of human peroxisome proliferator-activated receptor gamma (PPARγ) (P37231 whole entry, looked up): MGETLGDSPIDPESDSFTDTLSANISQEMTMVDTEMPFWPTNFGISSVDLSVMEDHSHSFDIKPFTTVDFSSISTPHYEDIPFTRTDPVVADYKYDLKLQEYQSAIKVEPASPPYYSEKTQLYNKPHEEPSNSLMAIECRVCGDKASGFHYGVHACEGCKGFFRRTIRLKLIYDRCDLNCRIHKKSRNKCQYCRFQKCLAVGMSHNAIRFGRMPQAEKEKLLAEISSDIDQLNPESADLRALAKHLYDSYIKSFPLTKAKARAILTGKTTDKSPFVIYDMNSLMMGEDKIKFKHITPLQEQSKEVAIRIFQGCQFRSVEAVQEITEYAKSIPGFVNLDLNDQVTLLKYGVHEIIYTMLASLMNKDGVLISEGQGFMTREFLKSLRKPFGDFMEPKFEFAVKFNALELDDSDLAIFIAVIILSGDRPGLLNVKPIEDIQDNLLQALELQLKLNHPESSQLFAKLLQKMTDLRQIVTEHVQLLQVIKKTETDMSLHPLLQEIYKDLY
T1 sequence (O75469 whole entry): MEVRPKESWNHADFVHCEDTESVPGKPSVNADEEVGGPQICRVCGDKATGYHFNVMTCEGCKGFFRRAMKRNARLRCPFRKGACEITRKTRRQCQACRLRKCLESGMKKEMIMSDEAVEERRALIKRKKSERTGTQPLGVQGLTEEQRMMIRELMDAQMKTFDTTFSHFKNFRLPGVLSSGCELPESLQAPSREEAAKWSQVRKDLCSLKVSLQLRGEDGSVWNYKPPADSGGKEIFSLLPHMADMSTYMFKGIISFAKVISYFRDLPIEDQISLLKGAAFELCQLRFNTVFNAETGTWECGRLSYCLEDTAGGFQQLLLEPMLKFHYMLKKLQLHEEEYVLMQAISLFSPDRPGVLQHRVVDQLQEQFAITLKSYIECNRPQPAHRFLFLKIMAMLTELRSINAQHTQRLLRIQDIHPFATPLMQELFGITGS
Sequence of human retinoid X receptor alpha (hRXRα) (P19793 whole entry, looked up): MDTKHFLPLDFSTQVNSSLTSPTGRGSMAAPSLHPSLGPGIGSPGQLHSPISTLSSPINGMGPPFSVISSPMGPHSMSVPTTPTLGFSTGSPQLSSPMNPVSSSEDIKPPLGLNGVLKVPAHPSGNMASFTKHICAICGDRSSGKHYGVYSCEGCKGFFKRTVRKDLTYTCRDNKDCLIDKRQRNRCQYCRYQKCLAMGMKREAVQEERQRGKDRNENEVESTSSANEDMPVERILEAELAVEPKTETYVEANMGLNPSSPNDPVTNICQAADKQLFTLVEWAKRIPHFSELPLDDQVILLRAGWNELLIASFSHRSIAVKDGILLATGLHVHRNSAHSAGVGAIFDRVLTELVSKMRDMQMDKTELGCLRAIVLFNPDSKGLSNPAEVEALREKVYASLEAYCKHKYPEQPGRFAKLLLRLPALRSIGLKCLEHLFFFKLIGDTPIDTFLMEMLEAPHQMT
Sequence of human Farnesoid X receptor (hFXR) (Q96RI1 whole entry, looked up): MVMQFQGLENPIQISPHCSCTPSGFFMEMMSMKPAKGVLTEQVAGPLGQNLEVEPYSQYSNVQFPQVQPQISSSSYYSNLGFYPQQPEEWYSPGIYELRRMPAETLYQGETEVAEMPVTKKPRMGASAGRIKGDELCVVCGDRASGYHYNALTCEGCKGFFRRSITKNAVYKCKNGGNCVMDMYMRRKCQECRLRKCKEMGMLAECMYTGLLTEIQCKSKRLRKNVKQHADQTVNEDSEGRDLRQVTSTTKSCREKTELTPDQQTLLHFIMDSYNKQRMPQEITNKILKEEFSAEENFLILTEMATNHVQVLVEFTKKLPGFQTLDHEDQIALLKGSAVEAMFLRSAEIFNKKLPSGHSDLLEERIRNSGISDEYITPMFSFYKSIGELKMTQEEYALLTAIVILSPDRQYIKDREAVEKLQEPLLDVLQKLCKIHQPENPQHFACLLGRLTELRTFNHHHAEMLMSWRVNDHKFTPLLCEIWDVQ
Sequence of human glucocorticoid receptor (hGR) (P04150 whole entry, looked up): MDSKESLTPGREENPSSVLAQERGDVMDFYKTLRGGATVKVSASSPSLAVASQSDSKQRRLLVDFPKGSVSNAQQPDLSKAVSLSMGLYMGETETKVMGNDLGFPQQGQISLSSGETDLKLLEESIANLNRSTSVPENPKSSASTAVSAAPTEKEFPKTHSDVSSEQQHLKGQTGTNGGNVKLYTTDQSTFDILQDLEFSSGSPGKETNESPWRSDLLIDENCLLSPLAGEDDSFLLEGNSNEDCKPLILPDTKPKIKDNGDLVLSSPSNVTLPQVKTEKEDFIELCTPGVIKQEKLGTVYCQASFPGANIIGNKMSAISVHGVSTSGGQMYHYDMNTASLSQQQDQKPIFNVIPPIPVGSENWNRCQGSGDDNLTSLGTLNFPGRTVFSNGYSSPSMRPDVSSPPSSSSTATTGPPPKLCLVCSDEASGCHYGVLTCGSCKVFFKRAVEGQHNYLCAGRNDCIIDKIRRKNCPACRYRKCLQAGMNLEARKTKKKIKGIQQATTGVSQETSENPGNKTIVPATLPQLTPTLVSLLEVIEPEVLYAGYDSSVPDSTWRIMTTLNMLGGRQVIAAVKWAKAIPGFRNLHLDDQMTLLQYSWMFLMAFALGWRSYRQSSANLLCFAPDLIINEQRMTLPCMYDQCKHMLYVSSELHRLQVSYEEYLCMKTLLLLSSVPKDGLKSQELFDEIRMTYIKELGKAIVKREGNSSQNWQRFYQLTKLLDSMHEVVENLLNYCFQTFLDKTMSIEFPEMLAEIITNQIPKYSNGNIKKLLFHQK
Sequence of human retinoid X receptor beta (hRXRβ) (P28702 whole entry, looked up): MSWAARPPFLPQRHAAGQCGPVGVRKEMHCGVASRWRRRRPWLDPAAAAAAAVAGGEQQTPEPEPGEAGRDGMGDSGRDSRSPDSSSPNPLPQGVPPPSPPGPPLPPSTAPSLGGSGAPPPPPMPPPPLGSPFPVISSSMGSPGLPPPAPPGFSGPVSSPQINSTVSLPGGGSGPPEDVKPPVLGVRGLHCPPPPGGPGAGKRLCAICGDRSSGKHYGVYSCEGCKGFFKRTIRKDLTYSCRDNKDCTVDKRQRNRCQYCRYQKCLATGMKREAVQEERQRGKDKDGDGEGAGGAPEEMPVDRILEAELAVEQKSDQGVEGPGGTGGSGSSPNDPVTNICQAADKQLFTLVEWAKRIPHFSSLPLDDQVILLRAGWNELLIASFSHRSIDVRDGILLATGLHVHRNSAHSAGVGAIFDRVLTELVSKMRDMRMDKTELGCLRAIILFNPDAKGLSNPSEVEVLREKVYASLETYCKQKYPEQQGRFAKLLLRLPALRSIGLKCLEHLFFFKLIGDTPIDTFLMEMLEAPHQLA
Sequence of human Liver X receptor alpha (hLXRα) (Q13133 whole entry, looked up): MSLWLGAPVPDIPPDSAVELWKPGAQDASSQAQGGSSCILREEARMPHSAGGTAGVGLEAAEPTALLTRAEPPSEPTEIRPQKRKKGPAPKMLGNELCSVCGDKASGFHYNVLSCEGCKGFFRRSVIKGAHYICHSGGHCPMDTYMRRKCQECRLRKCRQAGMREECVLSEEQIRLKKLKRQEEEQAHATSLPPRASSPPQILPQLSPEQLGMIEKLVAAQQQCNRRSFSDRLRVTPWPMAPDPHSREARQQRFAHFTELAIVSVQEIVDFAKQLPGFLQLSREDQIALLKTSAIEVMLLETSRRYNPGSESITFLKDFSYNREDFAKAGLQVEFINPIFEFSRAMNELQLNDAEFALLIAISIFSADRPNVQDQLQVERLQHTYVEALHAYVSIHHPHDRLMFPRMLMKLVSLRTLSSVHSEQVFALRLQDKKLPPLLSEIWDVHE
Sequence of human Liver X receptor beta (hLXRβ) (P55055 whole entry, looked up): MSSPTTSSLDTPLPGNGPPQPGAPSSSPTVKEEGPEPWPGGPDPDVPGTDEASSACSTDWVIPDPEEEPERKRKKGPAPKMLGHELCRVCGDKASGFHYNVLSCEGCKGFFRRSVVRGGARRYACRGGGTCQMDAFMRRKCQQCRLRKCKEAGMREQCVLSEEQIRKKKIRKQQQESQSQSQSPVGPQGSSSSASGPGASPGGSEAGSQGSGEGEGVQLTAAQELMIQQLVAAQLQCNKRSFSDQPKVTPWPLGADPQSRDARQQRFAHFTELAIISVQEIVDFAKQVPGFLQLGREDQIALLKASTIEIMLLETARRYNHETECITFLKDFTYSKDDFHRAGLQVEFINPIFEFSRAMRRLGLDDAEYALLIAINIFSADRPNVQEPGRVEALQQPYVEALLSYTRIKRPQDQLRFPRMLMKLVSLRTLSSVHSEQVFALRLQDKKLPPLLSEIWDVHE
Sequence of human vitamin D receptor (hVDR) (P11473 whole entry, looked up): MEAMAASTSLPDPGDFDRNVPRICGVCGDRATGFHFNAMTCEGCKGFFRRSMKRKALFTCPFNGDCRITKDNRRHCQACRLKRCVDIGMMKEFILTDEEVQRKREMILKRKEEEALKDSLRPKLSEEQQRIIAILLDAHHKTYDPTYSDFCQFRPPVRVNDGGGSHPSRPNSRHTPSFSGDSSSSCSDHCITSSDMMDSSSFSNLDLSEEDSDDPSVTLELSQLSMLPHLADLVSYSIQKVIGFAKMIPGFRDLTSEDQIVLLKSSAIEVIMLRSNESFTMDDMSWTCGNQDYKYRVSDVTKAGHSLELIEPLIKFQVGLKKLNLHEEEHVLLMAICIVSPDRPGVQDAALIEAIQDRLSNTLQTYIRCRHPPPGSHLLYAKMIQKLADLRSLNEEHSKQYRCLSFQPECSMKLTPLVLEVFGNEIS

Molecule `O=C(Nc1ccccc1)c1cc([N+](=O)[O-])ccc1Cl` [GW9662, reference compound] has a pIC50 ([1]; PPARγ antagonistic assay, 100 nM rosiglitazone, read-out: IC50) of 6.62.
For `COc1ccc(C)cc1-n1nnc(S(=O)(=O)c2ccc(C(C)C)cc2)c1C` [LC-2], the pIC50 [2] was 6.18.
`COc1ccc(O)c(-n2nnc(S(=O)(=O)c3ccc(C(C)(C)C)c(O)c3)c2C)c1` [LC-83, 2-(4-((4-(tert-butyl)-3-hydroxyphenyl)sulfonyl)-5-methyl-1H-1,2,3-triazol-1-yl)-4-methoxyphenol] gave a pIC50 [3] of 4.79 and a pEC50 [2] of 5.30.
Work on `COc1ccc(Cl)cc1-n1nnc(S(=O)(=O)c2ccc(C(C)(C)C)cc2)c1Br` [LC-62, 5-bromo-4-((4-(tert-butyl)phenyl)sulfonyl)-1-(5-chloro-2-methoxyphenyl)-1H-1,2,3-triazole] yielded a pIC50 [1, 12] of 4.98.
`COc1ccc(OC)c(-n2nnc(S(=O)(=O)c3ccc(C(C)C)cc3)c2C)c1` [LC-4] was tested, and the pIC50 [2] was 6.20.
For `COc1ccc(OC)c(-n2nnc(S(=O)(=O)c3ccc(C(C)(C)C)cc3)c2Br)c1` [LC-61, 5-bromo-4-((4-(tert-butyl)phenyl)sulfonyl)-1-(2,5-dimethoxyphenyl)-1H-1,2,3-triazole], the pIC50 [1, 12] was 4.89.
`COc1ccc(Cl)cc1-n1nnc(S(=O)(=O)c2ccc(C(C)C)cc2)c1C` [LC-3] gave a pIC50 [2] of 6.28.
In the case of `COc1cc(C#N)c(Cl)cc1-n1nnc(S(=O)(=O)c2ccc(C(C)(C)C)cc2)c1C` [LC-36, 4-(4-((4-(tert-butyl)phenyl)sulfonyl)-5-methyl-1H-1,2,3-triazol-1-yl)-2-chloro-5-methoxybenzonitrile], the pEC50 [2] was 5.62.
In the case of `COC(=O)Cc1c(S(=O)(=O)c2ccc(C(C)(C)C)cc2)nnn1-c1cc(C)ccc1OC` [LC-66, methyl 2-(4-((4-(tert-butyl)phenyl)sulfonyl)-1-(2-methoxy-5-methylphenyl)-1H-1,2,3-triazol-5-yl)acetate], the pEC50 ([4]; Ag = compound exhibited agonism, read-out: RXRβ (Ag)) was 4.71.
For `COc1ccc(OC)c(-c2ncc(S(=O)(=O)c3ccc(C(C)(C)C)cc3)n2C)c1` [LC-70, 5-((4-(tert-butyl)phenyl)sulfonyl)-2-(2,5-dimethoxyphenyl)-1-methyl-1H-imidazole], the pIC50 ([3]; NA = not active) was 4.82, the pIC50 [5] was 4.69 and the pIC50 [6] was 4.79. The pIC50 [7] was 4.84 and the pIC50 [1, 12] was 4.55.
With `COc1cc(Cl)c(Cl)cc1-n1nnc(S(=O)(=O)c2ccc(C(C)(C)C)cc2)c1C` [LC-28, 4-((4-(tert-butyl)phenyl)sulfonyl)-1-(4,5-dichloro-2-methoxyphenyl)-5-methyl-1H-1,2,3-triazole] the pIC50 [1, 12] was 4.84.
Work on `COc1ccc(OC)c(-c2nc(C)c(S(=O)(=O)c3ccc(C(C)(C)C)cc3)[nH]2)c1` [LC-73, 5-((4-(tert-butyl)phenyl)sulfonyl)-2-(2,5-dimethoxyphenyl)-4-methyl-1H-imidazole] yielded a pIC50 [5] of 5.36.
`COc1ccc(OC)c(-n2nnc(S(=O)(=O)c3ccc(C(C)(C)C)c(O)c3)c2C)c1` [LC-88, 2-(tert-butyl)-5-((1-(2,5-dimethoxyphenyl)-5-methyl-1H-1,2,3-triazol-4-yl)sulfonyl)phenol] was tested, and the pIC50 [3] was 4.89 and the pEC50 [2] was 5.85.
`Cc1c(S(=O)(=O)c2ccc(C(C)(C)C)cc2)nnn1-c1cc(O)ccc1O` [LC-85, 2-(4-((4-(tert-butyl)phenyl)sulfonyl)-5-methyl-1H-1,2,3-triazol-1-yl)benzene-1,4-diol] was tested, and the pIC50 [4] was 4.51, the pIC50 [1, 12] was 4.89 and the pIC50 [2] was 5.41.
`COc1ccc(O)cc1-n1nnc(S(=O)(=O)c2ccc(C(C)(C)C)cc2)c1C` [LC-87, 3-(4-((4-(tert-butyl)phenyl)sulfonyl)-5-methyl-1H-1,2,3-triazol-1-yl)-4-methoxyphenol] was tested, and the pEC50 [2] was 4.92.
Molecule `COc1ccc(O)c(-n2nnc(S(=O)(=O)c3ccc(C(C)(C)C)cc3)c2C)c1` [LC-86, 2-(4-((4-(tert-butyl)phenyl)sulfonyl)-5-methyl-1H-1,2,3-triazol-1-yl)-4-methoxyphenol] has a pIC50 [3] of 4.58, a pIC50 [8] of 4.62 and a pIC50 [5] of 4.67. For the same molecule, the pIC50 [6] was 4.69, the pIC50 [4] was 4.75 and the pIC50 [7] was 4.66. It also gave a pIC50 [9] of 4.53, a pIC50 [10] of 4.72 and a pIC50 [1, 12] of 4.93. The pIC50 [2] was 6.74.
With `COc1ccc(OC)c(-n2nnc(S(=O)(=O)c3ccc(C(C)(C)C)cc3)c2CCl)c1` [LC-64, 4-((4-(tert-butyl)phenyl)sulfonyl)-5-(chloromethyl)-1-(2,5-dimethoxyphenyl)-1H-1,2,3-triazole] the pIC50 ([3]; NA = not active) was 5.10, the pIC50 [8] was 5.14 and the pIC50 [5] was 5.25. The pIC50 [6] was 5.24, the pIC50 [4] was 5.39 and the pIC50 [7] was 5.20. The pIC50 [9] was 5.19, the pIC50 [10] was 5.39 and the pIC50 [1, 12] was 5.82.
In the case of `COc1ccc(Cl)cc1-c1nc(C)c(S(=O)(=O)c2ccc(C(C)(C)C)cc2)n1C` [LC-78, 5-((4-(tert-butyl)phenyl)sulfonyl)-2-(5-chloro-2-methoxyphenyl)-1,4-dimethyl-1H-imidazole], the pIC50 ([3]; NA = not active) was 4.61 and the pEC50 [11] was 5.85.
`COc1ccc(OC)c(-n2nnc(S(=O)(=O)c3ccc(C(C)(C)C)cc3O)c2C)c1` [LC-84, 5-(tert-butyl)-2-((1-(2,5-dimethoxyphenyl)-5-methyl-1H-1,2,3-triazol-4-yl)sulfonyl)phenol] showed a pIC50 [3] of 4.68 and a pEC50 [2] of 5.48.
